Source: patent publication US20070128217A1 (priority 2003, published 2007)

How the values were obtained:
[1] = system: antibodies in sera from SARS patients (sera 1a, 1b, 2, 6, 37, 62, London, SARS-yellow, SARS-green); assay type: binding, human; parameters: Binding of serum 6 to linear peptides of protein X1 of SARS-CoV Urbani / Binding of serum 37 to linear peptides of protein X1 of SARS-CoV Urbani / Binding of serum 6 to looped/cyclic peptide (PEPSCAN-ELISA) / Binding of serum 37 to looped/cyclic peptide (PEPSCAN-ELISA) / Binding of serum 37 to looped/cyclic peptides of protein X1 of SARS-CoV Urbani / Binding of serum 6 to linear peptides of protein X2 / Binding of serum 37 to linear peptides of protein X2 / Binding of serum 37 to looped/cyclic peptides of protein X2 of SARS-CoV Urbani / Binding of serum 6 to linear peptides of protein M of SARS-CoV Urbani / Binding of serum 37 to linear peptides of protein M of SARS-CoV Urbani / Binding of serum 6 to looped/cyclic peptides of protein M of SARS-CoV Urbani / Binding of serum 37 to looped/cyclic peptides of protein M of SARS-CoV Urbani / Binding of serum 6 to linear peptides of protein X3 of SARS-CoV Urbani / Binding of serum 37 to linear peptides of protein X3 of SARS-CoV Urbani / Binding of serum 37 to looped/cyclic peptides of protein X3 of SARS-CoV Urbani / Binding of serum 6 to linear peptides of protein X4 of SARS-CoV Urbani / Binding of serum 37 to linear peptides of protein X4 of SARS-CoV Urbani / Binding of serum 37 to looped/cyclic peptides of protein X4 of SARS-CoV Urbani / Binding of serum 6 to linear peptides of protein X5 of SARS-CoV Urbani / Binding of serum 37 to linear peptides of protein X5 of SARS-CoV Urbani / Binding of serum 37 to looped/cyclic peptides of protein X5 of SARS-CoV Urbani / Binding of serum 6 to linear peptides of protein N of SARS-CoV Urbani / Binding of serum 37 to linear peptides of protein N of SARS-CoV Urbani / Binding of serum 6 to linear peptide (PEPSCAN-ELISA) / Binding of serum 1a to looped/cyclic peptides of protein N of SARS-CoV Urbani / Binding of serum 1b to looped/cyclic peptides of protein N of SARS-CoV Urbani / Binding of serum 2 to looped/cyclic peptides of protein N of SARS-CoV Urbani / Binding of serum 6 to looped/cyclic peptides of protein N of SARS-CoV Urbani / Binding of serum 37 to looped/cyclic peptides of protein N of SARS-CoV Urbani / Binding of serum 62 to looped/cyclic peptides of protein N of SARS-CoV Urbani / Binding of serum London to looped/cyclic peptides of protein N of SARS-CoV Urbani / Binding of serum SARS-green to looped/cyclic peptides of protein N of SARS-CoV Urbani: unit not given here
[2] = system: control sera (pooled serum of ten healthy LUMC hospital workers; commercial negative donor pooled serum from the Dutch bloodbank); assay type: binding, human; parameters: Binding of Control serum LUMC to linear peptides / Binding of Control serum Blood-bank to linear peptides / Binding of Control serum LUMC to looped peptides / Binding of Control Serum Blood-Bank to Looped peptides / Binding of Control serum LUMC to linear peptides of the protein M of SARS-CoV Urbani / Binding of Control serum Blood-bank to linear peptides of the protein M of SARS-CoV Urbani / Binding of Control serum LUMC to looped peptides of the protein M of SARS-CoV Urbani / Binding of Control Serum Blood-Bank to Looped peptides of the protein M of SARS-CoV Urbani: unit not given here
[3] = system: rabbit serum obtained by immunizing a rabbit with the SARS-CoV strain Frankfurt 1; assay type: binding; parameters: Binding of a rabbit serum to linear peptides / Binding of a rabbit serum to looped peptides / Rabbit serum linear peptides / Rabbit serum looped peptides / Binding of a rabbit serum to linear peptides of protein N of SARS-CoV Urbani (Rabbit serum linear peptides) / Binding of a rabbit serum to looped/cyclic peptides of protein N of SARS-CoV Urbani (Rabbit serum looped peptides): unit not given here

EGDGISTPKLKEDYQ
0.2: Binding of serum 2 to looped/cyclic peptides of protein X1 of SARS-CoV Urbani [1] | Binding of serum 6 to looped/cyclic peptides of protein X1 of SARS-CoV Urbani [1] | Binding of serum London to looped/cyclic peptides of protein X1 of SARS-CoV Urbani [1] | Binding of serum SARS-green to linear peptides of protein X1 of SARS-CoV Urbani [1] | Binding of serum SARS-green to looped/cyclic peptides of protein X1 of SARS-CoV Urbani [1] | Binding of serum SARS-yellow to linear peptides of protein X1 of SARS-CoV Urbani [1] | Binding of Control serum Blood-bank to linear peptides [2]
0.5: Binding of serum 37 to linear peptides of protein X1 of SARS-CoV Urbani [1]
0.6: Binding of serum 1a to linear peptides of protein X1 of SARS-CoV Urbani [1] | Binding of serum 2 to linear peptides of protein X1 of SARS-CoV Urbani [1]
0.3: Binding of serum 1b to linear peptides of protein X1 of SARS-CoV Urbani [1] | Binding of serum 1b to looped/cyclic peptides of protein X1 of SARS-CoV Urbani [1] | Binding of serum 6 to linear peptides of protein X1 of SARS-CoV Urbani [1] | Binding of serum 37 to looped/cyclic peptides of protein X1 of SARS-CoV Urbani [1] | Binding of serum 62 to looped/cyclic peptides of protein X1 of SARS-CoV Urbani [1] | Binding of serum London to linear peptides of protein X1 of SARS-CoV Urbani [1] | Binding of Control serum LUMC to linear peptides [2]
0.4: Binding of serum 1a to looped/cyclic peptides of protein X1 of SARS-CoV Urbani [1] | Binding of serum 62 to linear peptides of protein X1 of SARS-CoV Urbani [1] | Binding of Control Serum Blood-Bank to Looped peptides [2] | Binding of Control serum LUMC to looped peptides [2] | Binding of a rabbit serum to looped peptides [3]
0.1: Binding of serum SARS-yellow to looped/cyclic peptides of protein X1 of SARS-CoV Urbani [1] | Binding of a rabbit serum to linear peptides [3]

EITVATSRTLSYYKL
0.2: Binding of serum London to looped/cyclic peptides of protein M of SARS-CoV Urbani [1]
0.4: Binding of serum 1b to looped/cyclic peptides of protein M of SARS-CoV Urbani [1] | Binding of serum 6 to linear peptides of protein M of SARS-CoV Urbani [1] | Binding of serum SARS-green to linear peptides of protein M of SARS-CoV Urbani [1] | Binding of Control serum LUMC to linear peptides of the protein M of SARS-CoV Urbani [2]
0.5: Binding of serum 1b to linear peptides of protein M of SARS-CoV Urbani [1] | Binding of serum 2 to looped/cyclic peptides of protein M of SARS-CoV Urbani [1] | Binding of serum 6 to looped/cyclic peptides of protein M of SARS-CoV Urbani [1] | Binding of serum 37 to looped/cyclic peptides of protein M of SARS-CoV Urbani [1] | Binding of serum 62 to looped/cyclic peptides of protein M of SARS-CoV Urbani [1] | Binding of serum SARS-yellow to looped/cyclic peptides of protein M of SARS-CoV Urbani [1]
0.1: Binding of serum SARS-yellow to linear peptides of protein M of SARS-CoV Urbani [1] | Rabbit serum looped peptides [3]
0.6: Binding of serum 1a to looped/cyclic peptides of protein M of SARS-CoV Urbani [1] | Binding of serum 2 to linear peptides of protein M of SARS-CoV Urbani [1] | Binding of Control serum LUMC to looped peptides of the protein M of SARS-CoV Urbani [2]
0.8: Binding of serum 37 to linear peptides of protein M of SARS-CoV Urbani [1]
0.3: Binding of serum London to linear peptides of protein M of SARS-CoV Urbani [1] | Binding of serum SARS-green to looped/cyclic peptides of protein M of SARS-CoV Urbani [1]
0.9: Binding of serum 62 to linear peptides of protein M of SARS-CoV Urbani [1]
0.7: Binding of serum 1a to linear peptides of protein M of SARS-CoV Urbani [1] | Binding of Control Serum Blood-Bank to Looped peptides of the protein M of SARS-CoV Urbani [2] | Binding of Control serum Blood-bank to linear peptides of the protein M of SARS-CoV Urbani [2] | Rabbit serum linear peptides [3]
